Results: patent publication US6680054B1 (priority 1996, dated 2004)
Where two headings read alike, the source gives them in different places.

Key:
influenza A virus = assay type: cell-based
influenza strain Tokyo A = assay type: cell-based
[1] = tested on: influenza strain X-31 (H3N2); assay type: cell-based
[2] = target: whole virus influenza neuraminidase, A/NWS/Tokyo/3/67/H1N2 (Influenza A virus, UniProt P06820); assay type: biochemical; details: read-out: inhibition constants (IC50), NWS/Tokyo
whole virus influenza neuraminidase, A/NWS/Tokyo/3/67/H1N2, sequence (P06820 whole entry, looked up): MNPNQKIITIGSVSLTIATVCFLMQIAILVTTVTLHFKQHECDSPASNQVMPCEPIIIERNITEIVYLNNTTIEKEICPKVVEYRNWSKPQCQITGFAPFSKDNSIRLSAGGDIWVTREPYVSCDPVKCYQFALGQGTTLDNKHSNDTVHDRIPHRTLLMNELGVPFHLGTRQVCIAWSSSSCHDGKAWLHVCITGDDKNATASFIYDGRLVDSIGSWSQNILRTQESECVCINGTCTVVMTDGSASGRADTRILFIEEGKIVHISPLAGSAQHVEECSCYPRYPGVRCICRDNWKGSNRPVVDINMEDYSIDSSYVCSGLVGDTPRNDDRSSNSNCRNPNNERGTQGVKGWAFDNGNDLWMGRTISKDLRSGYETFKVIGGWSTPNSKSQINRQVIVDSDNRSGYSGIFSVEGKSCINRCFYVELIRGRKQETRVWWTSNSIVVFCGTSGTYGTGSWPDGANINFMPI

Polyacrylamide
MTC, minimum cytotoxic drug concentration (MDCK cells): >100

CC(=O)NC1C(NC(=N)N)C=C(C(=O)O)OC1[C@H](O)[C@H](O)CO (stereo partly shown) [GG167, 4-guanidino-Neu5Ac2en]
MTC, minimum cytotoxic drug concentration (MDCK cells; dog): >100
ID50, minimum compound concentration that inhibits cytopathic effect by 50% (influenza A virus): <0.32 µg/mL

NC(=O)c1ncn([C@@H]2O[C@H](CO)[C@@H](O)[C@H]2O)n1 [Ribavirin]
MTC, minimum cytotoxic drug concentration (MDCK cells; dog): >32
ID50, minimum compound concentration that inhibits cytopathic effect by 50% (influenza A virus): 1.0 to 2.6 µg/mL

7-{6′-{6″-[6″′-(6″″-(6′″″-aminocaproyl)-aminocaproyl)-aminocaproyl]-aminocaproyl}-aminohexyl-carbamoyl-oxy-4-guanidino-Neu5Ac2en [Compound 2c]
MTC, minimum cytotoxic drug concentration (MDCK cells): >100
ID50, minimum compound concentration that inhibits cytopathic effect by 50% (influenza A virus): 3.0 µg/mL

Fetuin
Lowest Concentration (μM of GG167 units) that Inhibited Agglutination, TOKYO (influenza strain Tokyo A): 5.86 µM
Lowest Concentration (μM of GG167 units) that Inhibited Agglutination, X-31 [1]: <0.48 µM

CC(=O)N[C@H]1[C@H]([C@H](O)[C@H](O)CO)OC(C(=O)O)=C[C@@H]1O [DANA, 2-deoxy-2,3-didehydro-N-acetylneuraminic acid]
IC50 [2]: 6 µM
